Test results as given in US20250136583A1, “NOVEL SALT FORMS OF ISOCHROMAN-IMIDAZOLE STRUCTURED ALPHA-2A ADRENOCEPTOR AGONIST” (ORION CORPORATION, priority 2022, published 2025).
Structures can show the parent of a compound that is named as a salt.

How the values were obtained:
[1] = Physical stability of the salts (storage at elevated temperature and relative humidity, re-analysis by XRPD); type: physicochemical; details: for Form after stability / Physical stability: solids exposed for 2 or 3 weeks at 40° C. and 70-80% relative humidity; for Form after stability: XRPD; for Physical stability: re-analyzed by XRPD
Experimental: XRPD measurements were performed with the X-ray powder diffractometer Bruker D8 Advance at room temperature, using a copper filled X-ray tube (40 kV×40 mA) as the X-ray source, CuKα (λ=1.5418 Å), a 0.6 mm divergence slit, 2.5° Soller slits on both the primary and secondary beams and the 1-dimensional LynxEye detector (with aperture angle of 2.91593°). Data collection was done in the range of 3.8-33° 2θ with 0.02° increments, at a scan speed of 0.3°/s.
A stability test was carried out for all crystalline salt forms resulted from the salt screen by exposing the solids for 2 or 3 weeks at 40° C. and 70-80% relative humidity. After exposure, the solids were re-analyzed by XRPD, followed by physical stability assessment.

[2] = Chemical stability of the salts (stress at 60° C. and 75% relative humidity, purity by UHPLC); type: physicochemical; details: for Purity (%) of 1 day stress samples / Difference between reference and 1 day stressed sample: 1 day at 60° C. and 75% relative humidity; for Purity (%) of 1 day stress samples / Purity (%) of 14 day stress samples / Purity (%) of reference: UHPLC; for Difference between reference and 1 day stressed sample / Difference between reference and 14 day stressed sample: purity difference, in %; for Purity (%) of 14 day stress samples / Difference between reference and 14 day stressed sample: 14 days at 60° C. and 75% relative humidity; for Purity (%) of reference: unstressed sample; for Chemical stability (in words): summary statement
Experimental: The purity analyses were performed using Agilent UHPLC equipment with PDA/DAD detector at 210 nm wavelength and reverse phase liquid chromatography column Acquity UPLC HSS T3, 100×3.0 mm, 1.8 μm (Waters). The chromatography was performed with gradient run using acetonitrile and phosphate buffer (pH 3.0) as eluents.
The chemical stability of various salts of compound (I) was determined by stressing the salts for 1 and 14 days at 60° C. and 75% relative humidity. The unstressed sample was used as an reference. The purity of the samples were analyzed using UHPLC, and the purity difference between the stressed and reference was calculated.

alpha2A receptor = target: T1, alpha2A receptor (Homo sapiens, UniProt P08913); details: background, WO 2013/150173; cited from earlier work
T1 sequence (P08913 1-465): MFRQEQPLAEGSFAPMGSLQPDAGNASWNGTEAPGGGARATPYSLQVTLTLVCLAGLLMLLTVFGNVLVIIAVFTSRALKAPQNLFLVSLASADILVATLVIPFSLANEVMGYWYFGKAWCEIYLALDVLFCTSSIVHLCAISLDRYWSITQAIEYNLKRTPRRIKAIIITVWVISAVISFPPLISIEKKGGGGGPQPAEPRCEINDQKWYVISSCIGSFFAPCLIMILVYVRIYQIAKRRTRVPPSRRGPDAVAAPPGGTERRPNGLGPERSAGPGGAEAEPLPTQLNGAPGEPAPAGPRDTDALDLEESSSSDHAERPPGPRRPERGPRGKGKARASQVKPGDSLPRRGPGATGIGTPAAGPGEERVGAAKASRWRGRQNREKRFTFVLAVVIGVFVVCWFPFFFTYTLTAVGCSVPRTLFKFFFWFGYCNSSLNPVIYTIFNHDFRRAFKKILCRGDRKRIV

[3] = listed as Napthalene-1,5-disulfonic acid salt

SMILES	Form after stability [1]	Physical stability [1]	Purity (%) of 1 day stress samples [2] [%]	Difference between reference and 1 day stressed sample [2]	Purity (%) of 14 day stress samples [2] [%]	Difference between reference and 14 day stressed sample [2]	Purity (%) of reference [2] [%]	also measured
COc1cccc2c1CCOC2C1=NCCN1 [L-tartaric acid salt Form 2, 2-(5-methoxyisochroman-1-yl)-4,5-dihydro-1H-imidazole]	Form 1	Unstable	97.5	1.0	88.3	10.3	98.6	Crystalline form conversion on storage ([1]; 40° C., 75% RH for 3 weeks): turned into form 1; Form after stability ([1]; listed as L-tartaric acid (form 2)): completely
COc1cccc2c1CCOC2C1=NCCN1 (centres unmarked) [Adipic acid salt Form 1, 2-(5-methoxyisochroman-1-yl)-4,5-dihydro-1H-imidazole]	Form 1	Stable	94.7	4.4	2.7	96.5	99.1	Physical stability ([1]; listed as adipic acid): remained stable
COc1cccc2c1CCOC2C1=NCCN1 (centres unmarked) [Malonic acid salt Form 1, 2-(5-methoxyisochroman-1-yl)-4,5-dihydro-1H-imidazole]	Form 1	Stable	96.6	1.5	72.7	25.5	98.2	Physical stability ([1]; listed as malonic acid): remained stable
COc1cccc2c1CCOC2C1=NCCN1 (centres unmarked) [Fumaric acid salt Form 2, 2-(5-methoxyisochroman-1-yl)-4,5-dihydro-1H-imidazole]	Form 2	Stable	97.6	−0.3	98.0	−0.8	97.2	Physical stability ([1]; listed as fumaric acid (form 2)): remained stable
COc1cccc2c1CCOC2C1=NCCN1 [L-tartaric acid salt Form 1, 2-(5-methoxyisochroman-1-yl)-4,5-dihydro-1H-imidazole]	Form 1	Stable	97.9	1.0	90.3	8.7	99.0	Physical stability ([1]; listed as L-tartaric acid (form 1)): remained stable
COc1cccc2c1CCOC2C1=NCCN1 (centres unmarked) [Naphthalene-1,5-disulfonic acid salt Form 1] [2-(5-methoxyisochroman-1-yl)-4,5-dihydro-1H-imidazole]	Form 1	Stable						Physical stability ([1]; listed as naphthalene-1,5-disulfonic acid): remained stable; Purity (%) of 1 day stress samples [2, 3]: 96.1%; Difference between reference and 1 day stressed sample [2, 3]: 0.2; Purity (%) of 14 day stress samples [2, 3]: 95.7%; Difference between reference and 14 day stressed sample [2, 3]: 0.6; Chemical stability (in words) [2]: good chemical stability; Purity (%) of reference [2, 3]: 96.3%
COc1cccc2c1CCOC2C1=NCCN1 (centres unmarked) [Tasipimidine, 2-(5-methoxyisochroman-1-yl)-4,5-dihydro-1H-imidazole]								Activity on adrenergic alpha2 receptors, especially alpha2A receptor (alpha2A receptor): agonistic activities
COc1cccc2c1CCOC2C1=NCCN1 (centres unmarked) [Ethane-1,2-disulfonic acid salt Form 1, 2-(5-methoxyisochroman-1-yl)-4,5-dihydro-1H-imidazole]	Form 1	Stable	99.8	0.0	99.8	0.0	99.8	Physical stability ([1]; listed as ethane-1,2-disulfonic acid): remained stable; Chemical stability (in words) [2]: good chemical stability
COc1cccc2c1CCOC2C1=NCCN1 (centres unmarked) [Hydrochloric acid salt Form 1, 2-(5-methoxyisochroman-1-yl)-4,5-dihydro-1H-imidazole]	Form 1	Stable	89.8	8.7	69.0	29.5	98.6	Physical stability ([1]; listed as hydrochloric acid): remained stable
